We go through two molecules from publication PMC4104029, “Mechanism of Action of Compound-13: An α1-Selective Small Molecule Activator of AMPK” (Chemistry & Biology, 2014).

Experiment [1] addresses AMPKα2β1γ1 Thr172 dephosphorylation by PP2Cα (Homo sapiens, UniProt P54619+P54646). The experiment in a line: Phosphatase protection assay (PP2Cα). The experiment is classed as biochemical. The note with it: incubation with PP2Cα; 1–10 μM. Here is the method: Figure 2 C2 Is a Partial Agonist of α2 Complexes and Selectively Protects α1 Complexes against Dephosphorylation by PP2C (A and B) Recombinant AMPKα1β1γ1 (A) or AMPKα2β1γ1 (B) was assayed in the presence of AMP (30 μM) and increasing concentrations of C2 (0–20 μM). Results are expressed as fold increase in activity relative to controls without ligand and represent the mean ± SD for three independent experiments. (C and D) The effects of C2 and AMP on dephosphorylation and inactivation of AMPKα1β1γ1 (C) and α2β1γ1 (D) by PP2Cα (present in all assay conditions). Results are expressed as a percentage of control reactions performed in the absence of Mg^2+ and represent the mean ± SD of three independent experiments. Representative blots of pT172 and total AMPKα are shown below the bar charts. (E) AMPKα1β1γ2 WT (open bars) and mutant complexes (β1 ΔCBD [β1 Δ1–185], gray bars, and γ2 R531G, black bars) were purified from COS1 cells by transient overexpression of the indicated constructs, as described in Methods, and assayed in the presence of the indicated compounds under standard conditions. Results are expressed as the fold increase in activity relative to controls in the absence of compound and represent the mean ± SD for three independent experiments.
AMPKα1β1γ1 or α2β1γ1 was dephosphorylated in vitro with PP2Cα in 50 mM HEPES pH 7.4, 10 mM MgCl2, 0.1 mM EGTA, 0.03% BRIJ-35, 1 mM DTT, and the indicated compounds for 15 min at 30°C. Mg^2+ was omitted from the negative control. Reactions were terminated by 20-fold dilution and storage on ice. AMPK activity was assayed under standard conditions in the presence of saturating AMP (200 μM). The results are expressed as percentage activity of the negative control. In control experiments, PP2Cα activity was determined in reactions containing 50 mM TES pH 7.4, 0.1 mM EGTA, 25 mM MgCl2, 0.01% BRIJ-35, 0.02% (v/v) 2-mercaptoethanol, and 100 μM EFLR(pT)SCGS (168–176 AMPKα2). Liberated phosphate was determined using malachite green ([Baykov et al., 1988]).

Experiment [2] concerns the target T1, WT FLAG-α2, β1, and γ1 in COS1 cells (Homo sapiens, UniProt P54619+P54646).
T1 construct: expressed in transfected cells; host or cells: COS-1 cells
The experiment in a line: Kinase activity in anti-FLAG immunoprecipitates from treated COS1 cells. The format is cell-based. The settings on record: up to 100 μM, 1 h. The text has this: (Needleman and Wunsch, 1970) and edited using ESPript (Gouet, et al., 2003). Secondary structure was derived from PDBID 2Y94. The phosphotransferase domain is shaded green (T-loop phosphorylation site is indicated with a star), the autoinhibitory domain in blue and the C-terminal domain in yellow. Regulatory elements in the α-linker are also indicated: α-hook in pink and α-RIMs in orange. Black lines indicate the position of the epitopes recognised by α-subunit specific antibodies used in this study. (B) COS-1 cells were seeded into 6-well plates and transiently transfected with pCMV-AMPKβ1, pCMV-AMPKγ1 and either pCMV-FLAG-AMPKα2 WT or pCMV-FLAG-AMPKα2/α1 LOOP chimera using FuGENE HD.
After 24 h cells were treated with the indicated compounds for 1 h and kinase activity determined in anti-FLAG immunoprecipitates under standard conditions. […]
Mouse hepatocytes were incubated with the indicated compounds in the absence (Resting) or presence of 10 mU/ml insulin for 60 min. Lysates were analysed by Western blotting using the indicated antibodies. […]
Yeast acetate CoA ligase (Sigma) was assayed in reactions containing 50 mM TES pH 7.4, 0.1 mM EDTA, 5 mM MgCl2, 4 mM ATP, 0.2 mM coenzyme A, 5 mM DTT and increasing concentrations of C2 and C13 (0 – 100 μM). The formation of pyrophosphate (PPi) was monitored by reduction of PPi-molybdate complexes as described in Methods. […]

AMPKα2β1γ1 Thr172 dephosphorylation by PP2Cα, sequence (P54646 whole entry): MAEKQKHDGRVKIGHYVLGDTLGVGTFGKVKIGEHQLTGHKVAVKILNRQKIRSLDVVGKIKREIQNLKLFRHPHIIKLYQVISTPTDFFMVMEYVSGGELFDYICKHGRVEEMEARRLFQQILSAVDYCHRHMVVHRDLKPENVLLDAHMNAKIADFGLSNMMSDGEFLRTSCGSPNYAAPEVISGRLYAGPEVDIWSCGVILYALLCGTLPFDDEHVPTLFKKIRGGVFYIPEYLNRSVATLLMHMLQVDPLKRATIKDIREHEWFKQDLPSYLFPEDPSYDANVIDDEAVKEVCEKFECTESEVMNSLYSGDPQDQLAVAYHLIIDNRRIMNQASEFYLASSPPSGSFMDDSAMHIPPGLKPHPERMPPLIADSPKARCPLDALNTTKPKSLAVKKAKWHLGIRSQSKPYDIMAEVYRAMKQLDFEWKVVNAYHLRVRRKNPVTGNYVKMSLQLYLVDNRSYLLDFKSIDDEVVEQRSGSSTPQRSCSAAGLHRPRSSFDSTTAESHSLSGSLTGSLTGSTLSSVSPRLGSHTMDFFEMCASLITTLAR
AMPKα2β1γ1 Thr172 dephosphorylation by PP2Cα, sequence (Q9Y478 whole entry partner): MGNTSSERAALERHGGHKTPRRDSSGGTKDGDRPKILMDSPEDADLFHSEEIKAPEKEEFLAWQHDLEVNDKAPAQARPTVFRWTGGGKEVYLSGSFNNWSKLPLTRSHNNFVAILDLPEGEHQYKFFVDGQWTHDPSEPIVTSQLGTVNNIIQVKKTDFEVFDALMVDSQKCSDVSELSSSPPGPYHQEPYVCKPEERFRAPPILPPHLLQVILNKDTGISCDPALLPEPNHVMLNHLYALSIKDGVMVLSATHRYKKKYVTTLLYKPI
AMPKα2β1γ1 Thr172 dephosphorylation by PP2Cα, sequence (P54619 whole entry): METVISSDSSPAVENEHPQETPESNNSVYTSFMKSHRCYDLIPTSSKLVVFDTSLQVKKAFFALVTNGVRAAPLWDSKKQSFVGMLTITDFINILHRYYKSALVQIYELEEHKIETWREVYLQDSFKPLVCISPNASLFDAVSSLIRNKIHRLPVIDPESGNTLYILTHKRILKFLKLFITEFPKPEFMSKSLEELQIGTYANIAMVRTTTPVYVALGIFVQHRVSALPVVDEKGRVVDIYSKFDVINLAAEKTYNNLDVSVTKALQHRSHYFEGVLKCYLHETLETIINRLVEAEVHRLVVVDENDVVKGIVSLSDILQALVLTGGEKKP
T1 sequence (P54646 whole entry): as the sequence (P54646 whole entry) above
T1 sequence (Q9Y478 whole entry partner): as the sequence (Q9Y478 whole entry partner) above
T1 sequence (P54619 whole entry): as the sequence (P54619 whole entry) above

As for `O=P(O)(O)c1ccc(-c2cc(O)on2)o1` [Compound C2, 5-(5-hydroxyl-isoxazol-3-yl)-furan-2-phosphonic acid], the effect on dephosphorylation result in experiment [1] is “essentially no effect”.
As to `CC(C)C(=O)OCOP(=O)(OCOC(=O)C(C)C)c1ccc(C2=NOC(=O)C2)o1` [Compound C13], the “kinase activation in cells” value in experiment [2] is “unresponsive”.
